From ChEMBL document CHEMBL1201862, “PubChem BioAssay data set” (2004) come the findings set out here.

For orientation: GI50 means the concentration giving 50% growth inhibition.

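96-well plates; 48 h exposure; 5 concentrations. Endpoints by linear interpolation between flanking doses. Not reached: highest tested concentration assigned. The concentration for 50% growth inhibition is given as GI50.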 The source made the active and inactive calls. No stated cut-off is given here; in the data, active = GI50 up to about 1.1 µM and inactive = higher. Starred links: 1 amine or outer side, 2 acyl side, 3 side chain; linkers in the order of their positions; H or OH if unused. Non-standard residues stand in square brackets, D forms with d. Residues, ends and D or L forms follow the SMILES beside them. X41 = CSCCCC(N[*:1])C(=O)[*:2]

Some test systems named below: HOP-62; SW-620; Hs-578T; U-251; SF-268; SN12C; KM12; CCRF-CEM; HOP-92; M14; K562; ACHN; HCT-15; HL-60; HT-29; Malme-3M; MDA-N; A549; OVCAR-8; HCC 2998.
What all share (test): DTP human tumour cell line panel, 48 h

Turning to `O=C(OCCC12CC3CC(CC(C3)C1)C2)c1ccc(NCc2cc(O)ccc2O)cc1`, the GI50 in the assay with HOP-62 is 3.56 µM (inactive); in the assay with SW-620, 1.63 µM (inactive); in the assay with Hs-578T, 0.213 µM (active); in the assay with U-251, 0.445 µM (active); in the assay with SF-268, 2.49 µM (inactive); in the assay on SN12C it was 0.719 µM (active). The GI50 is 0.69 µM (active) in the assay with KM12; 0.101 µM (active) with CCRF-CEM; 3.74 µM (inactive) in the assay on HOP-92; 1.24 µM (inactive) with M14; 1.66 µM (inactive) with K562; 1.63 µM (inactive) in the assay with ACHN. In addition, the GI50 was 0.611 µM in the assay with HCT-15; 0.176 µM (active) in the assay on HL-60; 1.94 µM (inactive) with HT-29; 1.85 µM (inactive) in the assay with Malme-3M; 1.36 µM (inactive) in the assay with MDA-N; 2.14 µM (inactive) in the assay on A549.
On to `NNC(=O)CS(=O)(=O)Nc1ncccn1`, for which the GI50 in the assay on HOP-62, with SW-620, with Hs-578T, in the assay on U-251, in the assay with SF-268 and in the assay on SN12C was > 100 µM (inactive) throughout. For the same compound, the GI50 in the assay with KM12, in the assay on HOP-92, in the assay on M14, in the assay on K562, with OVCAR-8 and with ACHN was > 100 µM (inactive) in each case. In addition, the GI50 with HCT-15 was above 100 µM; with HT-29, > 100 µM (inactive); in the assay with Malme-3M it was > 100 µM (inactive); in the assay on MDA-N, > 100 µM (inactive); in the assay with A549 it was > 100 µM (inactive).
For `C=C(C)[C@H]1C2=CC(C(=O)OC)=C(C[C@H](C(=C)C)[C@@H](O)[C@@H](O)C3=C[C@H]1OC3=O)O2`, the GI50 in the assay on HOP-62, in the assay on SW-620, in the assay on Hs-578T, with U-251, with SF-268 and in the assay on SN12C was > 100 µM (inactive) throughout. The GI50 in the assay with KM12 is > 100 µM (inactive); in the assay on CCRF-CEM it was 87.9 µM (inactive); in the assay with HOP-92, 65.5 µM (inactive); with M14, > 100 µM (inactive); in the assay on K562, > 100 µM (inactive); in the assay on OVCAR-8, > 100 µM (inactive). Besides, the GI50 in the assay on ACHN is > 100 µM (inactive); with HCT-15, 59.8 µM; with HL-60, 61 µM (inactive); in the assay with HT-29, > 100 µM (inactive); with Malme-3M, > 100 µM (inactive); in the assay with MDA-N it was > 100 µM (inactive). The GI50 in the assay with A549 is > 100 µM (inactive).
Turning to `COc1ccc(C(=O)/C=C/c2ccc(OCCSCCCCCCCCCCSCCOc3ccc(/C=C/C(=O)c4ccc(OC)cc4)cc3)cc2)cc1`, the GI50 in the assay with HOP-62, in the assay on SW-620, in the assay with Hs-578T, with U-251, in the assay on SF-268 and in the assay with SN12C was > 100 µM (inactive) throughout. Also, the GI50 with KM12, in the assay on CCRF-CEM, with M14, in the assay on K562, with OVCAR-8 and in the assay on ACHN was > 100 µM (inactive) each time. In addition, the GI50 in the assay on HCT-15 is above 100 µM; in the assay with HL-60 it was > 100 µM (inactive); with HCC 2998, > 100 µM (inactive); with HT-29, > 100 µM (inactive); in the assay with MDA-N, < 0.01 µM (active); in the assay on A549, > 100 µM (inactive).
As to `COC(=O)/C=C1\C(=O)Nc2ccc(Br)cc21`, the GI50 is 2.06 µM (inactive) with HOP-62; 1.2 µM (inactive) in the assay on SW-620; 4.04 µM (inactive) with Hs-578T; 2.03 µM (inactive) in the assay with U-251; 3.49 µM (inactive) in the assay with SF-268; 1.62 µM (inactive) in the assay on SN12C. For the same compound, the GI50 with KM12 is 2.53 µM (inactive); in the assay with CCRF-CEM it was 0.296 µM (active); with HOP-92 it was 1.88 µM (inactive); in the assay on M14, 2.24 µM (inactive); in the assay with K562, 1.77 µM (inactive); in the assay with OVCAR-8 it was 2.14 µM (inactive). Besides, the GI50 in the assay with ACHN is 1.71 µM (inactive); with HCT-15 it was 1.16 µM; with HL-60, 1.59 µM (inactive); in the assay on HCC 2998, 2.22 µM (inactive); in the assay with HT-29, 1.73 µM (inactive); with Malme-3M, 2.33 µM (inactive). For the same compound, the GI50 with A549 is 3.15 µM (inactive).
`CN(C)c1ccc(/C=N/NC2=N/C(=C\c3ccco3)C(=O)N2)cc1`: the GI50 in the assay on HOP-62, in the assay on SW-620, in the assay with Hs-578T, in the assay with U-251, in the assay with SF-268 and in the assay on SN12C was > 100 µM (inactive) throughout. Also, the GI50 in the assay on KM12, in the assay with CCRF-CEM, with HOP-92, with M14, with K562 and in the assay with OVCAR-8 was > 100 µM (inactive) in each case. In addition, the GI50 with ACHN was > 100 µM (inactive); in the assay on HCT-15, above 100 µM; in the assay on HL-60 it was > 100 µM (inactive); in the assay on HT-29, > 100 µM (inactive); in the assay with Malme-3M, > 100 µM (inactive); in the assay on MDA-N, > 100 µM (inactive). In addition, the GI50 in the assay on A549 is > 100 µM (inactive).
Take `Cc1ccc2[nH]c(=O)c(-c3cnc(O)nn3)c(O)c2c1`: the GI50 in the assay with HOP-62, in the assay on SW-620, with Hs-578T, in the assay with U-251, in the assay on SF-268 and in the assay with SN12C was > 100 µM (inactive) each time. The GI50 in the assay with KM12 was > 100 µM (inactive); in the assay on CCRF-CEM it was > 100 µM (inactive); with M14, > 100 µM (inactive); with K562 it was 1.8 µM (inactive); in the assay on OVCAR-8, > 100 µM (inactive); in the assay with ACHN, 19.7 µM (inactive). Moreover, the 50% growth inhibitory concentration (GI50) with HCT-15 was above 100 µM; in the assay on HL-60, > 100 µM (inactive); with HT-29 it was > 100 µM (inactive); in the assay on Malme-3M, > 100 µM (inactive); in the assay on MDA-N it was 17.7 µM (inactive); in the assay on A549 it was 32 µM (inactive).
In the case of `O=C1c2cn[nH]c2N=C(Nc2ccccc2)C1/N=C/c1ccc([N+](=O)[O-])cc1` (stereo not given), the GI50 with Hs-578T, with U-251, with SF-268, in the assay on SN12C, with KM12 and in the assay with CCRF-CEM was > 10 µM (inactive) throughout. Also, the GI50 with M14, in the assay on K562, with OVCAR-8, in the assay with ACHN, in the assay with HL-60 and in the assay on HCC 2998 was > 10 µM (inactive) in each case. In addition, the GI50 in the assay with HT-29, in the assay on Malme-3M, in the assay with MDA-N and in the assay on A549 was > 10 µM (inactive) throughout.
In the case of `NC1=NC(c2ccc(Cl)cc2)N(c2ccc(S(=O)(=O)Nc3ncccn3)cc2)C(N)=N1` (stereo not given), the GI50 in the assay with HOP-62, in the assay with SW-620, with Hs-578T, in the assay with U-251, in the assay on SF-268 and in the assay with SN12C was > 100 µM (inactive) in each case. For the same compound, the GI50 with KM12, with CCRF-CEM, with HOP-92, with M14, in the assay with K562 and in the assay on OVCAR-8 was > 100 µM (inactive) in each case. Further, the GI50 was > 100 µM (inactive) with ACHN; above 100 µM in the assay on HCT-15; 0.178 µM (active) in the assay on HL-60; > 100 µM (inactive) in the assay on HT-29; > 100 µM (inactive) with Malme-3M; > 100 µM (inactive) in the assay on MDA-N. The GI50 in the assay on A549 was > 100 µM (inactive).
For the compound `CC1Cn2c(nc3ccccc32)NC1=O` (stereo not given), the GI50 with HOP-62, in the assay with SW-620, in the assay on Hs-578T, in the assay with U-251, with SF-268 and in the assay on KM12 was > 100 µM (inactive) each time. Further, the GI50 with CCRF-CEM, in the assay with HOP-92, in the assay on M14, in the assay with K562, in the assay on OVCAR-8 and with ACHN was > 100 µM (inactive) in each case. The GI50 with HCT-15 is above 100 µM; in the assay with HL-60, > 100 µM (inactive); in the assay with HT-29, > 100 µM (inactive); in the assay with Malme-3M, 58.2 µM (inactive); with MDA-N, > 100 µM (inactive); in the assay on A549, > 100 µM (inactive).
As to `CSCCCC(NC(=O)CNC(=O)C1CCCN1C(=O)C(Cc1ccc(O)cc1)NC(=O)C(Cc1ccccc1)NC(=O)C(CCCNC(=N)N)NC(=O)C(CC(=O)O)NC(=O)C1CCCN1C(=O)C(CC(=O)O)NC(=O)C1CCCN1C(=O)C1CCCN1C(=O)CN)C(N)=O` (stereo not given) (H-GPPDPDRFYPG[X41]-NH2; configuration not given here), the GI50 in the assay with HOP-62, in the assay on SW-620, in the assay on Hs-578T, in the assay on U-251, in the assay with SF-268 and with SN12C was > 50 µM (inactive) in each case. Also, the GI50 with KM12, in the assay with CCRF-CEM, in the assay on HOP-92, in the assay with M14, in the assay with K562 and in the assay with OVCAR-8 was > 50 µM (inactive) each time. For the same compound, the GI50 with ACHN is > 50 µM (inactive); in the assay with HCT-15, above 50 µM; in the assay with HL-60, > 50 µM (inactive); with HT-29, > 50 µM (inactive); with Malme-3M it was > 50 µM (inactive); in the assay with MDA-N, > 50 µM (inactive). Further, in the assay with A549, the GI50 is > 50 µM (inactive).
